# In US6559180B2, “Nitroglycerin-menthol potentiation for treatment of angina” (priority 2001, dated 2003):
# Values joined by “and” are separate entries in the source; they are usually repeats but may differ in a detail not shown here. Equal entries are not always repeated.
# Columns and labels:
# [1] = First study: sublingual pump spray in angina patients intolerant to standard 400 mcg NTG spray (intolerance and anginal pain relief); type: in vivo; conditions: single 200 mcg NTG spray dosage sublingually, Nitrolingual solution diluted fifty percent with placebo solution; 21 patients
# Method: The first study identifies 21 patients experiencing intolerance to a standard “Nitrolingual”® NTG 400 mcg spray dosage delivered sublingually.
# The “Nitrolingual”® solution described above was diluted fifty percent with a pharmacologically neutral solution placebo obtained from the same manufacturer, forming a combination solution. […] Each of the patients was then provided with a pump spray containing the combination solution which would limit each single spray dosage to 200 mcg NTG.
# Next, isovolumic amounts of “Nitrolingual”® Pumpspray solution and 1% Menthol solution were mixed and the combination solution was provided to patients as a pump spray.
# [2] = Second study: exercise stress tests in patients with reproducible exertional angina; type: in vivo
# Excerpt: The second study pertained to five patients that experienced reproducible exertional angina. The study comprised administering exercise stress tests for each patient on three consecutive days. […]
# For each patient, the stress test was stopped with the onset of angina. The objective evidence of ischemia was indicated by the degree of S-T segment depression and presence of segmental wall abnormalities documented by echocardiographic study performed immediately after the exercise stress test.
# All tests monitored angina with exercise, exercise tolerance, and the degree of S-T segment depression on the ECG, when: 1) no medication was administered (Table 1); […]); and, 3) a solution containing isovolumic amounts of NTG and Menthol […]
smiles,measurement,setting,value
"O=[N+]([O-])OCC(CO[N+](=O)[O-])O[N+](=O)[O-] [NTG, Nitroglycerin]",patients that did not experience intolerance,[1],90%
same,patients that received satisfactory relief from anginal pain within two minutes,[1],19%
same,Heart Rate at Peak,"[2]; 400 mg NTG administered prior to exercise, one line per patient (1-5)",120 and 128 and 140 and 112 and 130
same,Duration of Exercise,"[2]; 400 mg NTG administered prior to exercise, test stopped at onset of angina, one line per patient (1-5)",5 min and 6 min and 6.5 min and 4.5 min and 7.5 min
same,side effects observed,"[2]; 400 mcg NTG by itself or 200 mcg NTG in combination with Menthol, before exercise",No side effects were observed
